Assay results: PMC6631119, “Nasal Administration and Plasma Pharmacokinetics of Parathyroid Hormone Peptide PTH 1-34 for the Treatment of Osteoporosis” (Pharmaceutics, 2019)
Where two headings read alike, the source gives them in different places.

Experiments:
[1] = HPLC integrity of spray dried PTH 1-34; type: physicochemical; conditions: spray dried dry powder formulations during formulation development, inlet 85 °C
Method: The dry powder formulation was also prepared at CPL as 1% w/w PTH (1-34) with 39% Gellan gum, 40% Solutol® HS15, 20% Trehalose. In brief, 97.5 mg Gellan gum was dissolved in 50 mL ultra-pure water overnight. Solutol® HS15 was rendered molten (60 ± 10 °C), and 100 mg was added to the Gellan gum solution and mixed for 30–45 min at 60 °C. 50 mg of trehalose was added and mixed for a further 10 min. A total 5 mg of PTH 1-34 was dissolved in 5 mL of ultra-pure water, and 2.5 mL was added to the formulation. Particles were prepared using a spray dryer Mini Spray Dryer B-290 (Buchi UK Ltd., Oldham, UK) with the inlet set at 85 °C (outlet modified by inlet temperature), the aspirator 100%, the pump set at 006 equivalent to 2 mL/ min, the spray pressure at 4 bar. Particle size of the dry powder formulation manufactured for use in the sheep was not measured, due to limited availability of material due to batch size. However, the particle size of similar formulations when prepared for loading into the delivery devices was monitored using Helos/BF (Sympatec GmbH, Clausthal-Zellerfeld, Germany) during formulation development, where the VMD was 73.7–91.8 µm (×10 = 10.6–23.7 µm, ×50 = 51.5–98.1 µm, ×90 = 142–153 µm). A total 2.4–2.8% of particles were below 10 µm. As the vast majority of particles were >10 µm, the formulations would be expected to be nasally deposited.

[2] = Ovine plasma pharmacokinetics of PTH 1-34 (four-way randomised cross-over, ELISA); type: in vivo; conditions: sheep; for half-life: read-out: t1/2 (mean); for bioavailability: relative to intravenous injection, read-out: Fab
Method: Research was conducted in accordance with the requirements of the Animals (Scientific Procedures) Act 1986 (ASPA) under Procedural Project Licence (PPL) number 40/3552 (Protocol 19b/1), between 26 April 2016 and 24 May 2016, at the University of Nottingham, Nottingham, UK (Procedural Establishment Licence (PEL) number PCD 40/2406). The overarching protocol (as detailed in the PPL) was subject to full review by the Animal Welfare and Ethical Review Board (AWERB), and the study-specific protocol received a more localised review by the Named Animal Care and Welfare Officer (NACWO) and Named Veterinary Surgeon (NVS). This research governance is compliant with recommended ethical review processes. In view of the clinical data obtained in the present study, the pharmacokinetics of the Solutol® HS15-based formulation of PTH 1-34 were further investigated in sheep. The sheep study replicated the clinical trial in that it tested the nasal solution formulation of PTH 1-34 as well as a subcutaneous injection, but also evaluated pharmacokinetics of PTH 1-34 following intravenous injection and an intranasal PTH1-34 dry powder formulation.
The study was conducted according to a four-way randomised cross-over study in four (Mule crossbred) female sheep (obtained from a reputable commercial supplier). The sheep were group housed in a heat and ventilation air conditioned (HVAC) facility for the duration of the study, and were uniquely identified by a combination of ear tag and electronic transponder. On arrival, the animals were also randomly assigned a unique identifier by the facilities Research Animal Facility Management system (LabTracks, Locus Technology Inc., Manchester, MD, USA) and an abbreviated study number (1, 2, 3 and 4). To aid identification during the study, the fleece of each animal was marked with the abbreviated study number by spraying with a commercial stockmarker (dye). The animals were acclimatised for 17 days prior to initiation of treatments. The animals were subject to a health inspection by the NVS prior to and after use in the study, and were monitored during the study by the PPL holder and facility personnel supported by the NACWO, NVS and University of Nottingham personnel. Animals were weighed weekly during the study (Supplementary Materials: Section S3).
Administration of the PTH 1-34 was either as an intranasal liquid, intranasal dry powder, subcutaneous injection or intravenous injection. The treatments were randomised according to a Latin Square design using an online randomisation programme (Experimental Design Generator and Randomiser (Edgar) accessed from: http://www.edgarweb.org.uk/) with a minimum of a two day washout period between study legs. Immediately prior to dosing, the four sheep were sedated by an intravenous injection of ketamine hydrochloride (100 mg/mL solution administered at 2.25 mg/kg). This provided approximately 3 min sedation, during which period the sheep were dosed.
The formulations were prepared at Critical Pharmaceuticals’ Laboratories and transported, refrigerated, to the study facility. The intranasal liquid was administered via the right nostril using a LMA™ MAD110 Nasal™ Intranasal mucosal atomization device (MAD110) (Wolfe-Tory Medical, Inc., Salt Lake City, UT, USA) customised for use in sheep (to allow circumvention of the nostril and delivery of the dose to the respiratory mucosa of the nasal cavity). The intranasal powder formulation was also administered via the right nostril using a 5 mm oral/nasal tracheal tube Portex® Blueline 100/111/050, (Smiths Medical, Ashford, UK) and one-way bellows. The amount of powder administered to each animal, and thus the nominal dose of PTH 1-34, was determined by weighing the devices before and after the nasal administrations. The subcutaneous and intravenous bolus injections of PTH 1-34 were administered into the flank and a jugular vein, respectively. […]

[3] = female, Mule crossbred, 20 ug, four-way crossover, intravenous bolus (jugular vein), solution without Solutol HS15, 20 μg, plasma ELISA, mean ± SE, n = 4
[4] = female, Mule crossbred, inhaled or intranasal, 200 ug, four-way crossover, intranasal liquid with 7.5% w/v Solutol HS15, 200 μg, single nostril, plasma ELISA, mean ± SE, n = 4
[5] = female, Mule crossbred, inhaled or intranasal, 200 ug, four-way crossover, intranasal liquid with 7.5% w/v Solutol HS15, 200 μg, single nostril, plasma ELISA, mean ± SE, n = 4, not dose-corrected
[6] = female, Mule crossbred, inhaled or intranasal, four-way crossover, intranasal dry powder (1% PTH 1-34, 39% gellan gum, 40% Solutol HS15, 20% trehalose), nominal 200 μg (estimated 130 ± 15 μg), plasma ELISA, mean ± SE, n = 4
[7] = female, Mule crossbred, sc, 20 ug, four-way crossover, subcutaneous injection into flank, solution without Solutol HS15, 20 μg, plasma ELISA, mean ± SE, n = 3
[8] = four-way crossover, intranasal dry powder with Solutol HS15 and gellan gum, nominal 200 μg (estimated 130 ± 15 μg), plasma ELISA, n = 4
[9] = four-way crossover, intranasal liquid with 7.5% w/v Solutol HS15, 200 μg, single nostril, plasma ELISA, n = 4
[10] = four-way crossover, intravenous bolus (jugular vein), solution without Solutol HS15, 20 μg, plasma ELISA, n = 4
[11] = four-way crossover, subcutaneous injection into flank, solution without Solutol HS15, 20 μg, plasma ELISA, n = 3

integrity of the spray dried PTH 1-34: purity by HPLC [1]: > 82.5% | AUC(0-inf) [2, 3]: 0.18 ng·h/mL | AUC(0-t) [2, 3]: 0.178 ng·h/mL | Tmax [2, 3]: 2 min | half-life [2, 3]: 75 ± 18.1 min | Cmax ([2]; female, Mule crossbred, 20 ug, four-way crossover, intravenous bolus (jugular vein), solution without Solutol HS15, 20 μg, plasma ELISA, observed, mean ± SE, n = 4): 1.14 ± 0.198 ng/mL | Cmax [2, 4]: 0.047 ± 0.021 ng/mL | Tmax [2, 4]: 10 min | AUC(0-inf) [2, 5]: 0.0204 ng·h/mL | AUC(0-t) [2, 5]: 0.0182 ng·h/mL | half-life [2, 4]: 109 ± 43.7 min | Cmax [2, 6]: 0.008 ± 0.003 ng/mL | Tmax [2, 6]: 11 min | half-life ([2]; female, Mule crossbred, inhaled or intranasal, four-way crossover, intranasal dry powder with Solutol HS15 and gellan gum, nominal 200 μg (estimated 130 ± 15 μg), plasma ELISA, mean ± SE, n = 4): 96 ± 29.8 min | C0 ([2]; female, Mule crossbred, plasma, 20 ug, intravenous bolus 20 μg, back-extrapolated from the first two concentration values, mean ± SE, read-out: C0 (initial plasma concentration, extrapolation to t = 0)): 2.18 ± 0.696 ng/mL | F rel ([2]; female, Mule crossbred, plasma, inhaled or intranasal, 200 ug, intranasal liquid with 7.5% w/v Solutol HS15, 200 μg, relative to subcutaneous injection, from AUCINF, dose-corrected, mean ± SE, n = 4, read-out: Frel): 1.4 ± 0.31% | bioavailability ([2]; female, Mule crossbred, plasma, inhaled or intranasal, 200 μg, intranasal dry powder with Solutol HS15 and gellan gum, from AUCINF, corrected with estimated dose, mean ± SE, n = 4): 0.7 ± 0.03% | F rel ([2]; female, Mule crossbred, plasma, inhaled or intranasal, 200 μg, intranasal dry powder with Solutol HS15 and gellan gum, relative to subcutaneous injection, from AUCINF, corrected with estimated dose, mean ± SE, n = 4, read-out: Frel): 1 ± 0.12% | bioavailability ([2]; female, Mule crossbred, plasma, inhaled or intranasal, 200 ug, intranasal liquid with 7.5% w/v Solutol HS15, 200 μg, from AUCINF, dose-corrected, mean ± SE, n = 4): 1.1 ± 0.26% | F rel ([2]; female, Mule crossbred, plasma, iv, 20 ug, intravenous bolus 20 μg, relative to subcutaneous injection, calculated for n = 3, read-out: Frel, n = 3): 140% | F rel ([2]; female, Mule crossbred, plasma, iv, 20 ug, intravenous bolus 20 μg, relative to subcutaneous injection, from AUCINF, mean ± SE, n = 4 (average subcutaneous AUCINF used for Sheep 1), read-out: Frel): 156 ± 24% | bioavailability ([2]; female, Mule crossbred, plasma, sc, 20 ug, subcutaneous injection into flank, 20 μg, from AUCINF, mean ± SE, n = 3): 77 ± 13.7% | AUC(0-inf) [2, 7]: 0.124 ng·h/mL | AUC(0-t) [2, 7]: 0.12 ng·h/mL | Cmax [2, 7]: 0.121 ± 0.047 ng/mL | Tmax [2, 7]: 12 min | half-life [2, 7]: 54 ± 8.7 min | Tmax (median) [2, 8]: 8 min | t1/2 (median) [2, 8]: 71 min | Tmax (median) [2, 9]: 10 min | t1/2 (median) [2, 9]: 77 min | Tmax (mean) ([2]; four-way crossover, intravenous bolus (jugular vein), solution without Solutol HS15, 20 μg, plasma ELISA, mean ± SE, n = 4): 2 min | Tmax (median) [2, 10]: 2 min | t1/2 (median) [2, 10]: 78 min | Tmax (median) [2, 11]: 10 min | t1/2 (median) [2, 11]: 47 min | Frel ([2]; intranasal liquid with 7.5% w/v Solutol HS15, 200 μg, relative to subcutaneous injection, from AUCINF, dose-corrected, mean ± SE, n = 4): 1.4 ± 0.3% | time by which concentrations had returned to near baseline values ([2]; intranasal liquid with Solutol HS15, 200 μg, post-dose): ≤ 30 min | time of return to near baseline ([2]; intravenous bolus 20 μg): 30 to 45 min | Fab range ([2]; subcutaneous injection 20 μg, relative to intravenous, range): 55–108%
SMILES: CC[C@H](C)[C@H](NC(=O)[C@H](CCC(=O)O)NC(=O)[C@H](CO)NC(=O)[C@@H](NC(=O)[C@@H](N)CO)C(C)C)C(=O)N[C@@H](CCC(N)=O)C(=O)N[C@@H](CC(C)C)C(=O)N[C@@H](CCSC)C(=O)N[C@@H](Cc1cnc[nH]1)C(=O)N[C@@H](CC(N)=O)C(=O)N[C@@H](CC(C)C)C(=O)NCC(=O)N[C@@H](CCCCN)C(=O)N[C@@H](Cc1cnc[nH]1)C(=O)N[C@@H](CC(C)C)C(=O)N[C@@H](CC(N)=O)C(=O)N[C@@H](CO)C(=O)N[C@@H](CCSC)C(=O)N[C@@H](CCC(=O)O)C(=O)N[C@@H](CCCN=C(N)N)C(=O)N[C@H](C(=O)N[C@@H](CCC(=O)O)C(=O)N[C@@H](Cc1c[nH]c2ccccc12)C(=O)N[C@@H](CC(C)C)C(=O)N[C@@H](CCCN=C(N)N)C(=O)N[C@@H](CCCCN)C(=O)N[C@@H](CCCCN)C(=O)N[C@@H](CC(C)C)C(=O)N[C@@H](CCC(N)=O)C(=O)N[C@@H](CC(=O)O)C(=O)N[C@H](C(=O)N[C@@H](Cc1cnc[nH]1)C(=O)N[C@@H](CC(N)=O)C(=O)N[C@@H](Cc1ccccc1)C(=O)O)C(C)C)C(C)C [PTH 1-34, PTH 1-34 acetate]
